Experimental data taken from a melting point compilation (Tetko et al.; mined from patent text by program, amines drawn as free bases though some values may be those of a salt).

Structure (SMILES)	melting point
O=C(O)c1c(-c2cc(Cl)cc(Cl)c2)c2ccccc2n1Cc1cc2c(cc1Cl)OCO2	221 to 222 °C
CCCn1cc(C(=O)NCc2ccc(Cl)cc2)c(=O)c2cc(CCl)oc21	160 to 162 °C
CC(C)c1oc(-c2ccccc2)c(-c2ccc(F)cc2)c1C=CC=O	98 to 100 °C
COC(=O)CC(c1ccc(OC)c(OC)c1)N1C(=O)C2CCCCC2C1=O (configuration not stated)	92.5 to 95 °C
COC(=O)CC(O)(c1ccccc1)c1ccc2nc(N)n(S(=O)(=O)C(C)C)c2c1 (configuration not stated)	147 to 149 °C
Cc1cc(C(=O)O)cc(C)c1C(=O)O	> 300 °C
CC(=O)OC1(C(C)=O)CCC2C3CCC4=CC(=O)CCC4(C)C3(Br)C(F)CC21C (configuration not stated)	180 to 182 °C
c1ccc(OCC2CCN(CCCOc3cccc4[nH]ccc34)CC2)cc1	118 to 119 °C
CNS(=O)(=O)c1ccc(N)c(C(=O)N2CCNCC2)c1	169 °C
OC[C@H](O)CNc1ccc2cc(OCC3CC3)ccc2c1	138 °C
COCCOc1ccc(CCCOC(=O)NS(=O)(=O)NCCOC(C)C)c(Oc2ncc(Cl)cc2Cl)c1	87.5 to 88.4 °C
O=c1ccc2cnc(Nc3ccccc3)nc2n1-c1ccccc1	300 to 302 °C
O=C(O)c1ccccc1Sc1ccc(F)cc1[N+](=O)[O-]	167 to 168 °C
CCc1cnc2c(NC(=O)c3c(Cl)cccc3Cl)cccc2c1C(C)=O	194 to 195 °C
CCOC(=O)C(C)Oc1ccc(N(C)c2nc3ccc(Br)cc3o2)cc1 (configuration not stated)	91 to 92 °C
CC1(C)CC(=O)C2=C(C1)NC1=C(C(=O)CC(C)(C)C1)C2c1ccc(Cl)c(Sc2ccccc2)c1	202 to 204 °C
COC(=O)C(C)(C)OCC#Cc1cc(Cl)ccc1NS(=O)(=O)c1cc(C)cc(C)c1	78 to 80 °C
COc1ccccc1CNc1ccc2cc(Nc3nnn(C(C)(C)C)n3)ccc2n1	156 °C
CN(C)c1ccc(C2CC3(C)C(O)CCC3C3CCC4=CC(=O)CCC4=C23)cc1 (configuration not stated)	166 to 167 °C
CC(=O)c1cc(I)c2c(c1)C=CC(C)(C)O2	102 °C
COC(=O)CCCc1cc2cc(Cl)ccc2n1S(=O)(=O)c1ccc2nc(NC(C)=O)sc2c1	120 °C
O=C(Nc1cc2[nH]c(=O)c(=O)[nH]c2cc1[N+](=O)[O-])C(F)(F)F	> 320 °C
CCc1ccc(S(=O)(=O)NC(C)(C)C)o1	71 to 72 °C
CCOC(=O)C=C(C)C=CC=C(C)C=Cc1c(C)c(CC)c(OC)c(CC)c1C	153 to 154 °C

Structure (SMILES)	melting point
O=C(NC1CC1)c1cccc(-c2ccc3c(c2)N(c2ccc(Cl)cc2Cl)CC3)c1	215 to 218 °C
Oc1noc2ccc(Oc3ccc(C(F)(F)F)cc3Cl)cc12	167 to 170 °C
Cn1cncc1C(O)(c1ccc(Cl)cc1)c1ccc2c(c1)C(c1cccc(Cl)c1)SCC(=O)N2CC1CC1 (configuration not stated)	245 °C
CN=C1c2ccccc2CCc2ccc(Cl)cc21	84 to 114 °C
CCCCCCOc1ccccc1C(=N)OCC	68 to 70 °C
COc1ccc2c(c1)C(=O)C(Cc1ccccc1)CN2S(=O)(=O)c1ccc(C)cc1 (configuration not stated)	101 to 103 °C
CCCCCCCN(C)C(=O)Nc1ccc(F)cc1NC(=O)c1cc(C(C)(C)C)c(O)c(C(C)(C)C)c1	164 to 167 °C
COCC1CN(c2ccc3nc(C(O)CCCO)sc3c2)C(=O)O1 (configuration not stated)	137 to 138 °C
CCOC(=O)Cc1sc(Sc2cccc(C(=O)O)n2)nc1C	123 to 125 °C
Cc1ccnc2[nH]c(=O)c(CC(=O)N(CCNC(=O)OC(C)(C)C)CC(=O)O)cc12	133 to 136 °C
Nc1c(-c2ccccc2)cc(-c2ccccc2)c2cccnc12	100 to 102 °C
FC1(F)c2ccccc2C(F)(F)C(F)(F)c2ccccc21	53 to 55 °C
CN(C)Cc1ccc(CSCCNC2=NS(=O)(=O)c3cscc32)o1	120 to 124 °C
CCOC(=O)COc1ccc(NS(C)(=O)=O)c(C)c1	93 to 94 °C
Cn1nc2cccc(Cl)c2c1S(N)(=O)=O	173 to 175 °C
COC(=O)c1ccc(CNC(=O)C2Cc3ccccc3N2S(=O)(=O)c2ccc(-c3cccc(C(F)(F)F)c3)cc2)c(Cl)c1 (configuration not stated)	78 to 87 °C
CCCCC(CC)C(=O)NC(=S)Nc1nc(-c2ccc3c(c2)CCCC3)cs1 (configuration not stated)	178 to 179 °C
COc1c(Cl)cc(F)cc1C1OC(=O)NC1=O (configuration not stated)	177 to 179 °C
O=c1c2ccc(Cl)cc2[nH]c2c(=O)n(-c3ccc(Cl)cc3Cl)nc(O)c12	342 to 343 °C
CC(NC(=O)C(NC(=O)c1ccccc1)SC(=O)c1ccccc1)C(=O)N1CCCC1C(=O)O (configuration not stated)	185 to 188 °C
O=C1CC(=O)OC2(O1)SC=CS2	59 to 60 °C
c1ccc2c(c1)[nH]c1nc(N3CCCC3)nc(N3CCCC3)c12	209 to 211 °C
Cc1c(C)c2c(c(Cl)c1C=O)OCC2	129 °C
CC(C)=CCCC(C)=CCOc1ccc(C(=O)NCCc2ccncc2)cc1	85.2 to 86.1 °C

Structure (SMILES)	melting point
CCOC(=O)C(C)n1cc(-c2ccc(Oc3ccccc3)cc2)c2c(N)ncnc21 (configuration not stated)	139 to 140 °C
CCCCCCCCCCCCCCCCCCC(N)C(N)=O (configuration not stated)	103 to 104 °C
O=C(O)CC(=O)Nc1cc2ccccc2cc1C(=O)O	225 to 227 °C
Cc1[nH]c(=O)ccc1-c1ccc2nccn2c1	290 to 292 °C
COc1cc(C=O)ccc1NC(C)=O	145 °C
CCOC(=O)c1c2c3c(cccc3n1C)CCC2	80 to 81 °C
c1ccc(SC2(Sc3ccccc3)CCCn3cc(-c4ccccc4)nc32)cc1	129 to 131 °C
CN(C)c1ccc(-c2ccc(C(=O)Nc3cccc(CC(=O)O)c3)o2)cc1	187 to 190 °C
Cc1cccc2sc(-n3nc4c(c3O)-c3ccccc3CC4)nc12	224 to 225 °C
CCCCc1nn(-c2cc(NC(=O)CC)ccc2C(F)(F)F)c(=O)n1Cc1ccc(-c2ccccc2S(=O)(=O)NC(=O)c2ccccc2Cl)cc1F	181 to 183 °C
C#CCn1c(C(F)(F)F)c(C(O)C#C)c2ccccc21 (racemic)	98 °C
CC(=NNC(=O)C1CCC1)c1ccncc1	139 °C
CC(C)Oc1ccc(C(=O)O)c(C(=O)O)c1	116 to 118 °C
COc1ccc(C#N)cc1C(C)(C)C=O	115 to 117 °C
COC(=O)c1cccc2c(I)c(OC)ccc12	98 to 99 °C
N#Cc1[nH]c(Br)c(-c2ccc(Cl)cc2)c1Br	191 to 194 °C
CNC(=NS(=O)(=O)c1ccc(C)cc1)NCCSCc1[nH]cnc1C	138 °C
NC(=O)NC1CCCc2ccsc21 (configuration not stated)	211 to 213 °C
CS(=O)(=O)c1ccnc(Oc2cc(C#N)cc(C#N)c2)n1	189 to 191 °C
CC(=O)CCC1(C(C)C)Cc2cc(OCC(=O)O)c(Cl)c(Cl)c2C1=O (configuration not stated)	125 to 128 °C
COc1cc(OC)cc(N2CCN(C(=O)N(CC3CC3)c3cc4ccccc4nc3OC)CC2)c1	118 to 120 °C
CC(=O)N(C)c1cccc(-c2ccnc3c(C(=O)c4ccco4)cnn23)c1	210 to 212 °C
CCOC(=O)C(=O)C1Cc2ccc(NS(=O)(=O)c3ccc(C)cc3)cc2C1=O (configuration not stated)	202 to 204 °C
N#Cc1cccc2c1C(=O)OC2O (configuration not stated)	138 to 140 °C
